Results as given in PubChem BioAssay (NCI).
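In this assay, cells in 96-well plates receive the compound at five concentrations for 48 hours. Endpoints are linearly interpolated between the surrounding concentrations. Here, GI50 denotes the concentration required for 50% inhibition of growth. At the TGI there is no net growth.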

What was measured:
Test in all cases: DTP human tumour cell line panel, 48 h
786-0 renal = test system: 786-0 renal
A498 renal = test system: A498 renal
A549 NSCLC = test system: A549 NSCLC
ACHN renal = test system: ACHN renal
BT-549 breast = test system: BT-549 breast
CAKI-1 renal = test system: CAKI-1 renal
CCRF-CEM leukemia = test system: CCRF-CEM leukemia
COLO 205 colon = test system: COLO 205 colon
DU-145 prostate = test system: DU-145 prostate
EKVX NSCLC = test system: EKVX NSCLC
HCC-2998 colon = test system: HCC-2998 colon
HCT-116 colon = test system: HCT-116 colon
HCT-15 colon = test system: HCT-15 colon
HL-60(TB) leukemia = test system: HL-60(TB) leukemia
HOP-62 NSCLC = test system: HOP-62 NSCLC
HOP-92 NSCLC = test system: HOP-92 NSCLC
HS 578T breast = test system: HS 578T breast
HT29 colon = test system: HT29 colon
IGROV1 ovarian = test system: IGROV1 ovarian
K-562 leukemia = test system: K-562 leukemia
KM12 colon = test system: KM12 colon
LOX IMVI melanoma = test system: LOX IMVI melanoma
M14 melanoma = test system: M14 melanoma
MALME-3M melanoma = test system: MALME-3M melanoma
MCF7 breast = test system: MCF7 breast
MDA-MB-231 breast = test system: MDA-MB-231 breast
MDA-MB-435 = test system: MDA-MB-435
MOLT-4 leukemia = test system: MOLT-4 leukemia
NCI-H226 lung = test system: NCI-H226 lung
NCI-H23 lung = test system: NCI-H23 lung
NCI-H460 lung = test system: NCI-H460 lung
NCI-H522 lung = test system: NCI-H522 lung
NCI/ADR-RES ovarian = test system: NCI/ADR-RES ovarian
OVCAR-3 ovarian = test system: OVCAR-3 ovarian
OVCAR-4 ovarian = test system: OVCAR-4 ovarian
OVCAR-5 ovarian = test system: OVCAR-5 ovarian
OVCAR-8 ovarian = test system: OVCAR-8 ovarian
PC-3 prostate = test system: PC-3 prostate
SF-268 CNS = test system: SF-268 CNS
SF-295 CNS = test system: SF-295 CNS
SF-539 CNS = test system: SF-539 CNS
SK-MEL-2 melanoma = test system: SK-MEL-2 melanoma
SK-MEL-28 melanoma = test system: SK-MEL-28 melanoma
SK-MEL-5 melanoma = test system: SK-MEL-5 melanoma
SK-OV-3 ovarian = test system: SK-OV-3 ovarian
SN12C renal = test system: SN12C renal
SNB-19 CNS = test system: SNB-19 CNS
SNB-75 CNS = test system: SNB-75 CNS
SR leukemia = test system: SR leukemia
SW-620 colon = test system: SW-620 colon
T-47D breast = test system: T-47D breast
TK-10 renal = test system: TK-10 renal
U251 CNS = test system: U251 CNS
UACC-257 melanoma = test system: UACC-257 melanoma
UACC-62 melanoma = test system: UACC-62 melanoma
UO-31 renal = test system: UO-31 renal

Compound: C#C[C@]1(O)CC[C@H]2[C@@H]3CC=C4c5sc(-c6ccc7c(c6)OCO7)nc5CC[C@]4(C)[C@H]3CC[C@@]21C
- GI50 (786-0 renal): 0.841 µM
- TGI (786-0 renal): 3.78 µM
- GI50 (A498 renal): 1.63 µM
- TGI (A498 renal): 7.49 µM
- GI50 (A549 NSCLC): 2.76 µM
- TGI (A549 NSCLC): 8.48 µM
- GI50 (ACHN renal): 2.11 µM
- TGI (ACHN renal): 5.57 µM
- GI50 (BT-549 breast): 1.99 µM
- TGI (BT-549 breast): 5.67 µM
- GI50 (CAKI-1 renal): 2.63 µM
- TGI (CAKI-1 renal): 8.37 µM
- GI50 (CCRF-CEM leukemia): 2.8 µM
- TGI (CCRF-CEM leukemia): > 100 µM
- GI50 (COLO 205 colon): 3.87 µM
- TGI (COLO 205 colon): 27.8 µM
- GI50 (DU-145 prostate): 3.45 µM
- TGI (DU-145 prostate): 70.5 µM
- GI50 (EKVX NSCLC): 3.55 µM
- TGI (EKVX NSCLC): 73.5 µM
- GI50 (HCC-2998 colon): 5.56 µM
- TGI (HCC-2998 colon): > 100 µM
- GI50 (HCT-116 colon): 1.84 µM
- TGI (HCT-116 colon): 5.3 µM
- GI50 (HCT-15 colon): 1.93 µM
- TGI (HCT-15 colon): 6.28 µM
- GI50 (HL-60(TB) leukemia): 3.8 µM
- TGI (HL-60(TB) leukemia): > 100 µM
- GI50 (HOP-62 NSCLC): 2.53 µM
- TGI (HOP-62 NSCLC): 7.94 µM
- GI50 (HOP-92 NSCLC): 8.39 µM
- TGI (HOP-92 NSCLC): 29.8 µM
- GI50 (HS 578T breast): 0.501 µM
- TGI (HS 578T breast): 3.98 µM
- GI50 (HT29 colon): 2.32 µM
- TGI (HT29 colon): 7.65 µM
- GI50 (IGROV1 ovarian): 2.98 µM
- TGI (IGROV1 ovarian): 8.3 µM
- GI50 (K-562 leukemia): 3.53 µM
- TGI (K-562 leukemia): > 100 µM
- GI50 (KM12 colon): 3.46 µM
- TGI (KM12 colon): 31.1 µM
- GI50 (LOX IMVI melanoma): 1.73 µM
- TGI (LOX IMVI melanoma): 4.3 µM
- GI50 (M14 melanoma): 1.73 µM
- TGI (M14 melanoma): 5.34 µM
- GI50 (MALME-3M melanoma): 2.69 µM
- TGI (MALME-3M melanoma): 8.62 µM
- GI50 (MCF7 breast): 1.87 µM
- TGI (MCF7 breast): 4.95 µM
- GI50 (MDA-MB-231 breast): 3.45 µM
- TGI (MDA-MB-231 breast): 40.8 µM
- GI50 (MDA-MB-435): 1.97 µM
- TGI (MDA-MB-435): 4.17 µM
- GI50 (MOLT-4 leukemia): 2.8 µM
- TGI (MOLT-4 leukemia): > 100 µM
- GI50 (NCI-H226 lung): 3.31 µM
- TGI (NCI-H226 lung): 12.6 µM
- GI50 (NCI-H23 lung): 2.13 µM
- TGI (NCI-H23 lung): 5.29 µM
- GI50 (NCI-H460 lung): 2.38 µM
- TGI (NCI-H460 lung): 5.64 µM
- GI50 (NCI-H522 lung): 2.38 µM
- TGI (NCI-H522 lung): 6.17 µM
- GI50 (NCI/ADR-RES ovarian): 3.34 µM
- TGI (NCI/ADR-RES ovarian): 17 µM
- GI50 (OVCAR-3 ovarian): 3 µM
- TGI (OVCAR-3 ovarian): 11.9 µM
- GI50 (OVCAR-4 ovarian): 3.33 µM
- TGI (OVCAR-4 ovarian): 9.95 µM
- GI50 (OVCAR-5 ovarian): 2.08 µM
- TGI (OVCAR-5 ovarian): 5.29 µM
- GI50 (OVCAR-8 ovarian): 3.43 µM
- TGI (OVCAR-8 ovarian): 86.3 µM
- GI50 (PC-3 prostate): 1.68 µM
- TGI (PC-3 prostate): 4.46 µM
- GI50 (SF-268 CNS): 4.97 µM
- TGI (SF-268 CNS): 27.7 µM
- GI50 (SF-295 CNS): 0.52 µM
- TGI (SF-295 CNS): 2.56 µM
- GI50 (SF-539 CNS): 0.428 µM
- TGI (SF-539 CNS): 1.96 µM
- GI50 (SK-MEL-2 melanoma): 2.14 µM
- TGI (SK-MEL-2 melanoma): 6.37 µM
- GI50 (SK-MEL-28 melanoma): 1.29 µM
- TGI (SK-MEL-28 melanoma): 2.85 µM
- GI50 (SK-MEL-5 melanoma): 2.64 µM
- TGI (SK-MEL-5 melanoma): 6.99 µM
- GI50 (SK-OV-3 ovarian): 4.83 µM
- TGI (SK-OV-3 ovarian): 26.6 µM
- GI50 (SN12C renal): 2.88 µM
- TGI (SN12C renal): 9.83 µM
- GI50 (SNB-19 CNS): 2.59 µM
- TGI (SNB-19 CNS): 13.8 µM
- GI50 (SNB-75 CNS): 1.73 µM
- TGI (SNB-75 CNS): 8.25 µM
- GI50 (SR leukemia): 2.64 µM
- TGI (SR leukemia): > 100 µM
- GI50 (SW-620 colon): 2.07 µM
- TGI (SW-620 colon): 5.28 µM
- GI50 (T-47D breast): 3.62 µM
- TGI (T-47D breast): 27.6 µM
- GI50 (TK-10 renal): 3.39 µM
- TGI (TK-10 renal): 10.1 µM
- GI50 (U251 CNS): 1.41 µM
- TGI (U251 CNS): 4.53 µM
- GI50 (UACC-257 melanoma): 2.43 µM
- TGI (UACC-257 melanoma): 6.7 µM
- GI50 (UACC-62 melanoma): 2.24 µM
- TGI (UACC-62 melanoma): 5.19 µM
- GI50 (UO-31 renal): 2.03 µM
- TGI (UO-31 renal): 5.47 µM
